Patent US4889855A, “Heterocyclic compounds and their preparation and use” (priority 1987, dated 1989)
One block for each molecule: values may come before it.

Tests used:
[1] = tested on: NMDA (N-methyl-D-aspartate) receptors; settings: background; cited from earlier work
quisqualate receptor [2] = test: 3H-AMPA binding (Test 1); settings: displacement of 50% of the specific binding of 3H-AMPA (5 nM), rat cerebral cortical membranes, 0° C., 30 min
Description: The quisqualate receptor binding activity of the compounds of the present invention can be illustrated by determining their capability for displacing radioactively labelled 2-amino-3hydroxy-5-methyl-4-isoxazolepropionic acid (AMPA) from the quisqualatee type receptors.
The displacement activity of the compounds may be shown by determining the IC50 value which represents the concentration (μg/ml) which causes a displacement of 50% of the specific binding of ^3 H-AMPA.
^3 H-AMPA binding (Test 1)
500 μl of thawed rat cerebral cortical membrane homogenate in Tris-HCl (30 mM), CaCl2 (2.5 mM) and KSCN (100 mM) pH 7.1 were incubated at 0° C. for 30 min. with 25μl ^3 H-AMPA (5 nM final concentration) and the test compound and buffer. Nonspecific binding was determined by incubation with L-glutamic acid (600 μM final concentration). The binding reaction was terminated by adding 5 ml of ice-cold buffer followed by filtration through Whatman GF/C glass fibre filters and 2×5 ml wash with ice-cold buffer. Bound radioactivity was measured by scintillation counting. IC50 was determined by Hill analysis of at least four concentrations of test compound.

quisqualate receptor [3] = test: Antagonism of quisqualic acid induced 22Na+-release from striatal slices (Test 2); assay type: cell-based; settings: reduces quisqualic acid (2 μg/ml) stimulated 22Na+ efflux by 50%, rat striatal slices
Protocol: The quisqualate antagonism is measured by determining the EC50 value which represents the concentration which reduces the rate of quisqualic acid stimulated sodium efflux by 50%.
Antagonism of quisqualic acid induced ^22 Na^+ -release (Test 2)
Slices from rat striatum were preincubated with ^22 Na^+ for 30 min. After the ^22 Na^+ loading period, the slices were successively and every minute transferred through a series of tubes, each containing 1.5 ml of a non-radioactive physiological solution saturated with O2, with the help of a basket shaped sieve. Quisqualic acid (2 μg/ml) was present in the last 5 tubes and the compound to be tested was present in the same 5 tubes plus 3 tubes before. The amount of radioactivity in each washout tube as well as that left in the slices at the end of the experiment was measured by scintillation counting. EC50 -values were calculated by Hill analysis from at least three different concentrations of test compound as the concentration of test compound which reduces the efflux rate of ^22 Na^+ -ions to 50% of the efflux rate in the absence of test compound.

NMDA receptor = test: Inhibition of NMDA stimulated 3H-GABA release from cultured cerebral cortex interneurons (Test 3); assay type: cell-based; settings: inhibits 50% of NMDA (3 μg/ml) induced 3H-GABA release, mouse cerebral cortex interneurons
Description: The NMDA antagonistic properties of the compounds is illustrated by determining their capability to antagonize NMDA stimulated ^3 H-GABA release from cultured mouse cortex neurons.
The NMDA antagonistic activity of the compounds may be shown by determining the IC50 value, which represents the concentration (μg/ml) which inhibits 50% of NMDA induced ^3 H-GABA release.
Inhibition of NMDA stimulated ^3 H-GABA release from cultured mouse cerebral cortex interneurons (Test 3) Release experiments are performed using the model described by Drejer et al. (Life Sci. 38, 2077 (1986)). To cerebral cortex interneurons cultured in petri dishes (30 mm) are added 100 μg/ml 3-vinyl-GABA one […] before the experiment in order to inhibit degradation of GABA in the neurons. 30 min before the experiment 5 μCi ^3 H-GAGA is added to each culture and after this preloading period the cells are washed twice with a HEPES (N-2 Hydroxyethylpiperazine-N'-2-ethanesulfonic acid) buffered saline (HBS) containing 10 mM HEPES, 135 mM NaCl, 5 mM KCl, 0.6 mM MgSO4, 1.0 mM CaCl2 and 6 mM D-glucose; pH 7 and placed in a superfusion system. This system consists of a peristaltic pump continuously delivering thermostated 37° C. superfusion medium from a reservoir to the top of a slightly-tilted petri dish. The cell monolayer at the bottom of the dish is covered with a piece of nylon mesh to facilitate dispersion of medium over the cell layer. The medium is continuously collected from the lower part of the dish and delivered to a fraction collector. Initially, the cells are superfused with HBS for 15 min (flow rate 2 ml/min). Then cells are stimulated for 30 sec every 4 min by changing the superfusion medium from HBS to a corresponding medium containing NMDA and antagonists according to the following scheme: […]
stimulation no. 1: 3 μg/ml NMDA stimulation no. 2: 3 μg/ml NMDA+0.3 μg/ml antagonist stimulation no. 3: 3 μg/ml NMDA+3 μg/ml antagonist
Test substances are dissolved in water or 48% ethanol. The final ethanol concentration in the assay must not exceed 0.1%.
The release of ^3 H-GABA in the presence of NMDA (stimulated relase in cpm) are corrected for the mean basal release (cpm) before and after the stimulation.
The stimulated release in the presence of antagonists are expressed relative to the stimulated release by NMDA alone and the IC50 value for the antagonist is calculated (the concentration (μg/ml) of the test substance which inhibits 50% of the NMDA induced ^3 H-GABA release) either from a dose response curve or from the formula: [formula] where Co is stimulated release in control assays and Cx is the stimulated release in the test assay (the calculation assumes normal mass-action interaction). 25-75% inhibition of the NMDA stimulation must be obtained, before calculation of IC50.

kainate receptors = settings: background; cited from earlier work
quisqualate receptors = settings: background; cited from earlier work

SMILES: O=C(O)[C@@H]1CCCN[C@H]1C(=O)O (relative stereo) [trans-2,3-PDA, trans-2,3-piperidine dicarboxylic acid]
agonist activity on NMDA receptors [1]: strong to moderate agonist activity

SMILES: O=[N+]([O-])c1cccc2c1c([N+](=O)[O-])cc1nc(O)c(O)nc12 [2,3-Dihydroxy-6,7-dinitrobenzo(f)quinoxaline]
Test 1 IC50 (quisqualate receptor [2]): 0.06 µg/mL | Test 2 EC50 (quisqualate receptor [3]): 2.8 µg/mL | Test 3 IC50 (NMDA receptor): 0.3 µg/mL

SMILES: O=[N+]([O-])c1cc2nc(O)c(O)nc2c2c([N+](=O)[O-])cccc12 [2,3-Dihydroxy-6,10-dinitrobenzo(f)quinoxaline]
Test 1 IC50 (quisqualate receptor [2]): 0.85 µg/mL | Test 3 IC50 (NMDA receptor): 0.97 µg/mL

Test 1 IC50 (quisqualate receptor [2]): 0.69 µg/mL | Test 2 EC50 (quisqualate receptor [3]): 14 µg/mL | Test 3 IC50 (NMDA receptor): 0.39 µg/mL
SMILES: O=[N+]([O-])c1cc2nc(O)c(O)nc2c2ccccc12 [2,3-Dihydroxy-6-nitrobenzo(f)quinoxaline]

Test 1 IC50 (quisqualate receptor [2]): 0.61 µg/mL | Test 3 IC50 (NMDA receptor): 1.5 µg/mL
SMILES: O=[N+]([O-])c1cc2nc(O)c(O)nc2c2cccnc12 [2,3-Dihydroxy-6-nitropyrido(2,3-f)quinoxaline]

SMILES: N[C@@H](CCC(=O)NCC(=O)O)C(=O)O [3-glutamyl-glycine]
antagonism / selectivity at kainate receptors (kainate receptors): some selectivity for kainate receptors

Test 1 IC50 (quisqualate receptor [2]): 1.1 µg/mL | Test 2 EC50 (quisqualate receptor [3]): 23 µg/mL
SMILES: Nc1cc2nc(O)c(O)nc2c2ccccc12 [6-Amino-2,3-dihydroxybenzo(f)quinoxaline]

Test 1 IC50 (quisqualate receptor [2]): 9.2 µg/mL | Test 3 IC50 (NMDA receptor): 0.25 µg/mL
SMILES: O=[N+]([O-])c1cccc2c(Br)cc3nc(O)c(O)nc3c12 [6-bromo-2,3-dihydroxy-10-nitrobenzo(f)quinoxaline]

Test 1 IC50 (quisqualate receptor [2]): 0.17 µg/mL | Test 3 IC50 (NMDA receptor): 0.092 µg/mL
SMILES: O=[N+]([O-])c1cc2nc(O)c(O)nc2c2c1CCCC2 [7,8,9,10-Tetrahydro-2,3-dihydroxy-6-nitrobenzo(f)quinoxaline]

SMILES: Cc1onc(O)c1CC(N)C(=O)O (stereo not drawn) [AMPA, 2-amino-3-hydroxy-5-methyl-4-isoxazolepropionic acid]
agonist activity on quisqualate receptors (quisqualate receptors): potent agonists

SMILES: N[C@H](CCCC(=O)O)C(=O)O [D-2-amino-adipic acid]
antagonist activity on NMDA receptors [1]: moderate antagonist activity

SMILES: N[C@H](CCCCCP(=O)(O)O)C(=O)O [D-APH, 2-amino-7-phosphonoheptanoic acid]
antagonist activity on NMDA receptors [1]: most potent and selective antagonists

SMILES: N[C@H](CCCP(=O)(O)O)C(=O)O [D-APV, 2-amino-5-phosphono-valeric acid]
antagonist activity on NMDA receptors [1]: most potent and selective antagonists

SMILES: N[C@H](CCC(=O)O)C(=O)O [D-glutamic acid]
agonist activity on NMDA receptors [1]: strong to moderate agonist activity

SMILES: CCOC(=O)CCC(N)C(=O)OCC (stereo not drawn) [GDEE, Glutamic acid diethyl esteer]
antagonist activity at quisqualate receptors (quisqualate receptors): selective but very weak antagonist | antagonism / selectivity at kainate receptors (kainate receptors): relatively insensitive to antagonism

SMILES: N[C@H](C(=O)O)c1cc(=O)[nH]o1 [Ibotenic acid]
agonist activity on NMDA receptors [1]: strong to moderate agonist activity

SMILES: N[C@@H](CCC(=O)O)C(=O)O [L-glutamic acid]
agonist activity on quisqualate receptors (quisqualate receptors): potent agonists

SMILES: N[C@@H](CCS(=O)(=O)O)C(=O)O [L-homocysteic acid]
agonist activity on NMDA receptors [1]: strong to moderate agonist activity

SMILES: N[C@H](CCC[C@H](N)C(=O)O)C(=O)O [diaminopimelic acid]
antagonist activity on NMDA receptors [1]: moderate antagonist activity

SMILES: N[C@@H](Cn1oc(=O)[nH]c1=O)C(=O)O [quisqualic acid]
agonist activity on quisqualate receptors (quisqualate receptors): activated selectively
